The target of the test is Phospholipase A2 (Homo sapiens, UniProt P04054). Nature of the test: Inhibition of recombinant human secretory phospholipase A2 (sPLA2), chromogenic screening assay.
Chain of Phospholipase A2 (P04054 whole entry): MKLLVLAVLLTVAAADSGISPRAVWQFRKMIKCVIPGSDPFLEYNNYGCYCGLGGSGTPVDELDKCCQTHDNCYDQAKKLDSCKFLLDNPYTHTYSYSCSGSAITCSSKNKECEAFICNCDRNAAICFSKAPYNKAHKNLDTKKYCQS
A word on the IC50: it is the concentration needed to halve the response being measured. Regarding `COC(=O)COc1cccn2c(Cc3ccccc3-c3ccccc3)c(C(C)(C)C)c(C(=O)C(N)=O)c12` [(1-Aminooxalyl-3-biphenyl-2-ylmethyl-2-tert-butyl-indolizin-8-yloxy)-acetic acid methyl ester], the half-inhibitory concentration (IC50) stood at 0.1 µM.
The same measure for `CSc1c(C(=O)C(N)=O)c2c(OCC(=O)O)cccn2c1Cc1ccccc1-c1ccccc1` [(1-Aminooxalyl-3-biphenyl-2-ylmethyl-2-methylsulfanyl-indolizin-8-yloxy)-acetic acid]: 0.016 µM.
Take `CCc1c(C(=O)C(N)=O)c2c(OCC(=O)O)cccn2c1CCc1ccccc1` [(1-Aminooxalyl-2-ethyl-3-phenethyl-indolizin-8-yloxy)-acetic acid]: the IC50 came out at 0.051 µM.
Turning to `CCc1c(C(=O)C(N)=O)c2c(OCCCC(=O)O)cccn2c1CC1CCCCC1` [4-(1-Aminooxalyl-3-cyclohexylmethyl-2-ethyl-indolizin-8-yloxy)-butyric acid], the IC50 amounted to 3.4 µM.
Regarding `CCc1c(C(=O)C(N)=O)c2c(OCCCCC(=O)O)cccn2c1Cc1ccccc1-c1ccccc1` [5-(1-Aminooxalyl-3-biphenyl-2-ylmethyl-2-ethyl-indolizin-8-yloxy)-pentanoic acid], the 50% inhibitory concentration (IC50) was 1.3 µM.
For the compound `COC(=O)COc1cccn2c(Cc3ccccc3-c3ccccc3)c(C(C)C)c(C(=O)C(N)=O)c12` [(1-Aminooxalyl-3-biphenyl-2-ylmethyl-2-isopropyl-indolizin-8-yloxy)-acetic acid methyl ester], the IC50 stood at 0.035 µM.
Take `COC(=O)COc1cccn2c(Cc3ccccc3-c3ccccc3)c(C3CCCC3)c(C(=O)C(N)=O)c12` [(1-Aminooxalyl-3-biphenyl-2-ylmethyl-2-cyclopentyl-indolizin-8-yloxy)-acetic acid methyl ester]: the half-maximal inhibitory concentration (IC50) was 0.28 µM.
`CCc1c(C(=O)C(=O)NC)c2c(OCC(=O)O)cccn2c1Cc1ccccc1` [(3-Benzyl-2-ethyl-1-methylaminooxalyl-indolizin-8-yloxy)-acetic acid]: the 50% inhibitory concentration (IC50) was more than 50 µM.
Consider `CCc1c(C(=O)C(N)=O)c2cc(OCC(=O)O)ccn2c1Cc1ccccc1-c1ccccc1`, for which the 50% inhibitory concentration (IC50) is 1.4 µM.
In the case of `CCc1c(C(=O)C(N)=O)c2c(OCc3ccccn3)cccn2c1Cc1ccccc1-c1ccccc1` [2-[3-Biphenyl-2-ylmethyl-2-ethyl-8-(pyridin-2-ylmethoxy)-indolizin-1-yl]-2-oxo-acetamide], the half-inhibitory concentration (IC50) stood at 0.046 µM.
On to `CCc1c(C(=O)C(N)=O)c2cc(OCCC(=O)O)ccn2c1Cc1ccccc1-c1ccccc1`, for which the IC50 came to 0.24 µM.
With `CCc1c(C(=O)C(N)=O)c2cc(OCCCC(=O)O)ccn2c1Cc1ccccc1-c1ccccc1`, the half-maximal inhibitory concentration (IC50) was 0.14 µM.
As to `CCc1c(C(=O)C(=O)N(C)C)c2c(OCC(=O)O)cccn2c1Cc1ccccc1` [(3-Benzyl-1-dimethylaminooxalyl-2-ethyl-indolizin-8-yloxy)-acetic acid], the IC50 was more than 50 µM.
As for `NC(=O)C(=O)c1c(C2CC2)c(Cc2ccccc2-c2ccccc2)n2cccc(OCCCC(=O)O)c12` [4-(1-Aminooxalyl-3-biphenyl-2-ylmethyl-2-cyclopropyl-indolizin-8-yloxy)-butyric acid], the half-maximal inhibitory concentration (IC50) amounted to 4.4 µM.
The same measure for `CCc1c(C(=O)C(N)=O)c2c(OCC(=O)O)cccn2c1Cc1cc(C(C)(C)C)cc(C(C)(C)C)c1` [[1-Aminooxalyl-3-(3,5-di-tert-butyl-benzyl)-2-ethyl-indolizin-8-yloxy]-acetic acid]: 6.6 µM; for `CCc1c(C(=O)C(N)=O)c2c(OCc3ccncc3)cccn2c1Cc1ccccc1-c1ccccc1` [2-[3-Biphenyl-2-ylmethyl-2-ethyl-8-(pyridin-4-ylmethoxy)-indolizin-1-yl]-2-oxo-acetamide]: 0.083 µM.
For the compound `CCc1c(C(=O)C(N)=O)c2c(OCC(=O)OC)cccn2c1Cc1ccccc1-c1ccccc1` [(1-Aminooxalyl-3-biphenyl-2-ylmethyl-2-ethyl-indolizin-8-yloxy)-acetic acid methyl ester], the IC50 is 0.017 µM.

These data come from BindingDB's records for doi:10.1021/jm960395q (Shionogi, 1996).
